Test results published in patent publication EP0129499B1, “13-Alpha-alkyl gonanes, their preparation and pharmaceutical compositions containing them” (SCHERING AKTIENGESELLSCHAFT, priority 1983, dated 1984).

Tests used:
weiblichen Ratten [1] = test: Abortive effect in an early phase post nidationem (Experiment I), treatment d 5-7 p.c., s.c.; type: in vivo; settings: frühgravide Ratte; for Abortrate: Dosierungen ≧ 1,0 mg/d, absence of implants at d 9 p.c. counted as abortion
Excerpt: (§1) Zur Kennzeichnung der antigestagenen Wirkung der erfindungsgemässen Verbindungen wurde die abortive Wirkung in einer frühen Phase post nidationem (Experiment I) und in einer fortgeschrittenen Phase post nidationem (Experiment II) untersucht.
(§2) Die Versuche wurden an weiblichen Ratten im Gewicht von ca. 200 g durchgeführt. Nach erfolgter Anpaarung wurde der Schwangerschaftsbeginn durch Nachweis von Spermien in Vaginalabstrichen gesichert. Der Tag des Spermiennachweises gilt als Tag 1 der Gravidität (= d 1 p.c.).
(§3) Die Behandlung der Tiere mit der jeweils zu testenden Substanz bzw. dem Lösungsmittel erfolgte nach der Nidation der Blastocysten von d 5 p.c. bis d 7 p.c. (Experiment I) bzw. d 13 p.c. bis d 15 p.c. (Experiment II). An d 9 p.c. bzw. d 17 p.c. wurden die Tiere getötet und die Uteri auf Implantate und Resorptionsstellen hin untersucht. Von allen Uteri wurden Fotos angefertigt. Das Fehlen von Implantaten wurde als Abort gewertet.
(§4) Als Antigestagene wurden untersucht: • A: 11β-(4-Dimethylaminophenyl)-17β-hydroxy- 17a-propinyl-4,9-estradien-3-on (Referenzsubstanz). • B: 11 β-(4-Dimethylaminophenyl)-17β-hydroxy-17a- (3-hydroxypropyl)-13a-methyl-4,9-go- nadien-3-on (gemäss Erfindung). • C: 11β-(4-Dimethylaminophenyl)-17α-hydroxy-17ß- (3-hydroxypropyl)-13a-methyl-4,9-go- nadien-3-on (gemäss Erfindung).
Die Testsubstanzen wurden in einem Benzylbenzoat-Rizinusöl-Gemisch (Verhältnis 1:4) gelöst. Das Vehikelvolumen pro Einzeldosis betrug 0,2 ml. Die Behandlung erfolgte subcutan (s.c.). [drawing 1] worin [drawing 2] mit R^1 und R" in der Bedeutung von Wasserstoff oder Alkyl mit 1 bis 4 Kohlenstoffatomen oder R^I und R" unter Einschluss von N in der Bedeutung eines gesättigten 5- oder 6-gliedrigen Ringes, wobei im Ring ausser N noch ein weiteres Heteroatom wie 0, N, S enthalten sein kann, sowie die entsprechenden tertiären N-Oxide und die Säureadditionssalze, • -OR^III mit R"' in der Bedeutung von Methyl, Ethyl, Propyl, Methoxyphenyl, Allyl oder β-Dimethylaminoethyl, • R^2 ein Wasserstoffatom, eine Methyl- oder Ethylgruppe, • R^3-(CH2)n-CH3 mit n=0-4, • -(CH2)n-CH2-O(S)R^IV mit n=0-4 und R^IV in der Bedeutung von Wasserstoff oder Alkyl mit 1 bis 4 Kohlenstoffatomen, • -CH=CH-(CH2)n-OR^V mit n=1-4 und R^V in der Bedeutung von Wasserstoff, Alkyl oder Alkanoyl mit jeweils 1 bis 4 Kohlenstoffatomen, • -C≡C-X mit X in der Bedeutung von Wasserstoff, Alkyl mit 1 bis 4 Kohlenstoffatomen oder Halogen, • -(CH2)n-CH2CN mit n=0-3 oder [drawing 3] Y mit Y in der Bedeutung von Wasserstoff oder OR^v mit R^V in der oben angegebenen Bedeutung, • R^4 Hydroxy, Alkyloxy oder Alkanoyloxy mit jeweils 1 bis 4 Kohlenstoffatomen oder R^3/R4 [drawing 4] wobei R^3 in a-Stellung und R^4 in β-Stellung oder R^3 in β-Stellung und R^4 in a-Stellung zum Steroidgerüst stehen, und • R^5 ein Wasserstoffatom oder eine a- oder β-ständige Alkylgruppe mit 1 bis 4 Kohlenstoffatomen bedeuten. […]

weiblichen Ratten [2] = test: Abortive effect in an advanced phase post nidationem (Experiment II), treatment d 13-15 p.c., s.c.; type: in vivo; settings: 3-day s.c. administration of 3,0 mg/d, rat
Excerpt: as §1, §2, §3, §4
Die Testsubstanzen wurden in einem Benzylbenzoat-Rizinusöl-Gemisch (Verhältnis 1:4) gelöst. Das Vehikelvolumen pro Einzeldosis betrug 0,2 ml. Die Behandlung erfolgte subcutan (s.c.). […]

CC#C[C@]1(O)CC[C@H]2[C@@H]3CCC4=CC(=O)CCC4=C3[C@@H](c3ccc(N(C)C)cc3)C[C@@]21C [A, 11β-(4-Dimethylaminophenyl)-17β-hydroxy-17a-propinyl-4,9-estradien-3-on, reference compound]
Dosierung für voll abortive / maximale abortauslösende (antigestagene) Wirkung (weiblichen Ratten [1]): > 3,0 mg/d
Prozentsatz kompletter Aborte (weiblichen Ratten [2]): 3,5%

CN(C)c1ccc([C@H]2C[C@]3(C)[C@@H](CC[C@@]3(O)CCCO)[C@@H]3CCC4=CC(=O)CCC4=C32)cc1 [B, 11 β-(4-Dimethylaminophenyl)-17β-hydroxy-17a-(3-hydroxypropyl)-13a-methyl-4,9-go-nadien-3-on]
Dosierung für voll abortive / maximale abortauslösende (antigestagene) Wirkung (weiblichen Ratten [1]): ≥ 1,0 mg/d
Abortrate (weiblichen Ratten [1]): 4/4
Prozentsatz kompletter Aborte (weiblichen Ratten [2]): 35,4%

CN(C)c1ccc([C@H]2C[C@]3(C)[C@@H](CC[C@]3(O)CCCO)[C@@H]3CCC4=CC(=O)CCC4=C32)cc1 [C, 11β-(4-Dimethylaminophenyl)-17α-hydroxy-17ß-(3-hydroxypropyl)-13a-methyl-4,9-go-nadien-3-on]
Dosierung für voll abortive / maximale abortauslösende (antigestagene) Wirkung (weiblichen Ratten [1]): ≥ 1,0 mg/d
Abortrate (weiblichen Ratten [1]): 4/4
Prozentsatz kompletter Aborte (weiblichen Ratten [2]): 52,3%
